Consider seven molecules from PMC12396409, “Screening and hit evaluation of a microbial metabolite library against the pathogenic Plasmodium falciparum and Toxoplasma gondii parasites” (International Journal for Parasitology: Drugs and Drug …, 2025).

Where two headings read alike, the source gives them in different places. *1 amine or outer side, *2 acyl side, *3 side chain or, on linkers, in order; H or OH if unused. Where a SMILES comes first, the peptide text is derived from it. Bridges are numbered along the chain shown (N, C = ends). [ ]: non-standard residue; d: D form. The star is where a group is joined. Orn(4R-OH,5R-OH) = O=C([C@H](C[C@@H](O)[C@@H](O)N[*:3])N[*:1])[*:2]; Tetradecanoyl(10R,12S-Me2) = CC[C@H](C)C[C@H](C)CCCCCCCCC(=O)*; hTyr(3S-OH,4S-OH) = N[C@H](C(=O)O)[C@H](O)[C@@H](O)c1ccc(O)cc1; Gln(3R-OH) = NC(=O)C[C@@H](O)[C@H](N)C(=O)O; Pro(3S-OH) = O=C(O)[C@H]1NCC[C@@H]1O; Hyp = O=C(O)[C@@H]1C[C@@H](O)CN1

Assay [1] relates to P. falciparum 3D7 parasites. Description: P. falciparum growth inhibition assay, 1-cycle (72 h treatment), SYBR DNA staining (library screen at 2 μg/mL and dose-response). It is filed as cell-based, Plasmodium falciparum.
In assay [2] the test system is P. falciparum 3D7 parasites. In words: P. falciparum growth inhibition assay, 2-cycle (120 h treatment), delayed-death screen and dose-response. The format is cell-based, Plasmodium falciparum.
Assay [3] concerns T. gondii RH strain (RH-Tub-eYFP) tachyzoites. In words: microbe, parasite or virus in culture. As to conditions: 72 h; for percent parasite growth at 2 µg/mL: Toxoplasma gondii. It is filed as cell-based, Toxoplasma gondii.
The mark [4] stands for this setting: P. falciparum, 72 h, parasite screen 2 μg/mL, % growth, replicate 1.
[5] abbreviates: P. falciparum, 72 h, parasite screen 2 μg/mL, % growth, replicate 2.
Setting [6] is: P. falciparum, 120 h, parasite screen 2 μg/mL, % growth, replicate 1.
Setting [7] is: P. falciparum, 120 h, parasite screen 2 μg/mL, % growth, replicate 2.
Setting [8] is: T. gondii, parasite screen 2 μg/mL, % growth, replicate 1.
Setting [9] is: T. gondii, parasite screen 2 μg/mL, % growth, replicate 2.
[10] abbreviates: library screen at 2 μg/mL, % growth, replicate 1, read-out: Tg_72h_%Growth_Rep1.
Setting [11] is: library screen at 2 μg/mL, % growth, replicate 2, read-out: Tg_72h_%Growth_Rep2.
Where [12] appears, read: P. falciparum, 72 h, screen at 2 μg/mL, replicate 1.
Where [13] appears, read: P. falciparum, 72 h, screen at 2 μg/mL, replicate 2.
The mark [14] stands for this setting: P. falciparum, 120 h, screen at 2 μg/mL, replicate 1.
The mark [15] stands for this setting: P. falciparum, 120 h, screen at 2 μg/mL, replicate 2.
Setting [16] is: T. gondii, screen at 2 μg/mL, replicate 1.
The mark [17] stands for this setting: T. gondii, screen at 2 μg/mL, replicate 2.

In assay [1] (setting [4]), `CC[C@@H](O)[C@@](C)(O)[C@@H]1OC(=O)[C@H](C)[C@@H](O[C@H]2C[C@@](C)(OC)[C@@H](O)[C@H](C)O2)[C@H](C)[C@@H](O[C@@H]2O[C@H](C)C[C@H](N(C)C)[C@H]2O)[C@@]2(C)CC(C)=C(O2)[C@@H]1C` [Pseudoerythromycin A enol ether] registered a Pf_72h_%Growth_Rep1 of 72.76%. Further, the Pf_72h_%Growth_Rep2 in assay [1] (setting [5]) was determined as 82.73%. Moreover, the Pf_120h_%Growth_Rep1 in assay [2] (setting [6]) is recorded as 72.95%. The Pf_120h_%Growth_Rep2 in assay [2] (setting [7]) is 110.79%. This molecule came in with a Tg_72h_%Growth_Rep1 in assay [3] (setting [8]) of 127.77%. This molecule yielded a Tg_72h_%Growth_Rep2 in assay [3] (setting [9]) of 87.62%.

For `CS(=O)(=O)c1ccc([C@@H](O)[C@@H](CF)NC(=O)C(Cl)Cl)cc1` [Florfenicol, reference compound], the activity at 2 µg/mL was found to be 62.4% in assay [1] (Plasmodium falciparum, 3D7, 72 h, P. falciparum, 2 μg/mL, 72 h; read-out: 1) Growth (%) at 72 h); 69.7% in assay [1] (Plasmodium falciparum, 3D7, 72 h, library screen at 2 μg/mL, 72 h, % growth, replicate 1, read-out: Pf_72h_%Growth_Rep1); 55.2% in assay [1] (Plasmodium falciparum, 3D7, 72 h, library screen at 2 μg/mL, 72 h, % growth, replicate 2, read-out: Pf_72h_%Growth_Rep2); 10.8% in assay [2] (Plasmodium falciparum, 3D7, 120 h, P. falciparum, 2 μg/mL, 120 h; read-out: 2) Growth (%) at 120 h); 12.9% in assay [2] (Plasmodium falciparum, 3D7, 120 h, library screen at 2 μg/mL, 120 h, % growth, replicate 1, read-out: Pf_120h_%Growth_Rep1); 8.65% in assay [2] (Plasmodium falciparum, 3D7, 120 h, library screen at 2 μg/mL, 120 h, % growth, replicate 2, read-out: Pf_120h_%Growth_Rep2). For the same molecule, the “3) Fold change (72 h/120 h)” value in assay [2] is recorded as 5.8. Also, the values for the percent parasite growth at 2 µg/mL in assay [3] (setting [10]) and in assay [3] (setting [11]) were 47.1% and 48.9%, respectively.

In assay [1] (library screen at 2 μg/mL, 72 h, % growth, replicate 1), `CC[C@H](C)[C@H]1O[C@]2(C=C[C@@H]1C)C[C@@H]1C[C@@H](C/C=C(\C)[C@@H](O[C@H]3C[C@H](OC)[C@@H](O[C@H]4C[C@H](OC)[C@H](NC)[C@H](C)O4)[C@H](C)O3)[C@@H](C)/C=C/C=C3\CO[C@@H]4[C@H](O)C(C)=C[C@@H](C(=O)O1)[C@]34O)O2` [Emamectin B1a] registered a Pf_72h_%Growth_Rep1 of 2.12%. The molecule further returned a Pf_72h_%Growth_Rep2 in assay [1] (library screen at 2 μg/mL, 72 h, % growth, replicate 2) of 0.39%. The molecule also showed a Pf_120h_%Growth_Rep1 in assay [2] (library screen at 2 μg/mL, 120 h, % growth, replicate 1) of 3.81%. In assay [2] (library screen at 2 μg/mL, 120 h, % growth, replicate 2), this molecule came in with a Pf_120h_%Growth_Rep2 of 6.54%. Also, the Tg_72h_%Growth_Rep1 in assay [3] (library screen at 2 μg/mL, % growth, replicate 1) is 22.56%. Further, in assay [3] (library screen at 2 μg/mL, % growth, replicate 2), the Tg_72h_%Growth_Rep2 was determined as 92.26%.

For `CC[C@H](C)C[C@H](C)CCCCCCCCC(=O)N[C@H]1C[C@@H](O)[C@@H](O)NC(=O)[C@@H]2[C@@H](O)CCN2C(=O)[C@H]([C@H](O)CC(N)=O)NC(=O)[C@H]([C@H](O)[C@@H](O)c2ccc(O)cc2)NC(=O)[C@@H]2C[C@@H](O)CN2C(=O)[C@H]([C@@H](C)O)NC1=O` [Pneumocandin B0] ({Tetradecanoyl(10R,12S-Me2)}-[Orn(4R-OH,5R-OH)]T[Hyp][hTyr(3S-OH,4S-OH)][Gln(3R-OH)][Pro(3S-OH)]; lactam 1-C), the Pf_72h_%Growth_Rep1 in assay [1] (setting [4]) was 84.80%. In assay [1] (setting [5]), this molecule showed a Pf_72h_%Growth_Rep2 of 90.52%. In assay [2] (setting [6]), this molecule had a Pf_120h_%Growth_Rep1 of 81.62%. The Pf_120h_%Growth_Rep2 in assay [2] (setting [7]) came out at 136.49%. For the same molecule, the Tg_72h_%Growth_Rep1 in assay [3] (setting [8]) is recorded as 104.00%. Further, the Tg_72h_%Growth_Rep2 in assay [3] (setting [9]) was 85.61%.

As to `COC(=O)c1cc(O)cc(OC)c1Oc1cc(C)cc(O)c1C(=O)O` [Asterric Acid], the activity at 2 µg/mL came out at 98.8% in assay [1] (Plasmodium falciparum, 3D7, library screen at 2 μg/mL, 72 h, % growth, replicate 1, read-out: Pf_72h_%Growth_Rep1); 86.1% in assay [1] (Plasmodium falciparum, 3D7, library screen at 2 μg/mL, 72 h, % growth, replicate 2, read-out: Pf_72h_%Growth_Rep2); 145% in assay [2] (Plasmodium falciparum, 3D7, library screen at 2 μg/mL, 120 h, % growth, replicate 1, read-out: Pf_120h_%Growth_Rep1); 103% in assay [2] (Plasmodium falciparum, 3D7, library screen at 2 μg/mL, 120 h, % growth, replicate 2, read-out: Pf_120h_%Growth_Rep2). Further, the values for the percent parasite growth at 2 µg/mL in assay [3] (setting [10]) and in assay [3] (setting [11]) were 79.1% and 94.1%, respectively.

For the molecule `Cc1cc(=O)c2c(o1)-c1c(cc(O)c(O)c1C(=O)O)OC2` [Citromycetin], the Pf_72h_%Growth_Rep1 in assay [1] (setting [12]) is 89.81%. Further, the Pf_72h_%Growth_Rep2 in assay [1] (setting [13]) came to 87.50%. In assay [2] (setting [14]), this molecule showed a Pf_120h_%Growth_Rep1 of 103.91%. Moreover, the Pf_120h_%Growth_Rep2 in assay [2] (setting [15]) is 96.05%. The molecule also came in with a Tg_72h_%Growth_Rep1 in assay [3] (setting [16]) of 134.75%. In addition, the Tg_72h_%Growth_Rep2 in assay [3] (setting [17]) was 97.97%.

Consider `CC(=O)O[C@H]1CC[C@]2(C)[C@H]3CC[C@]4(C)Oc5cc(C)oc(=O)c5C[C@H]4[C@]3(C)CC[C@H]2C1(C)C` [Chevalone B], for which, in assay [1] (P. falciparum, 2 μg/mL, 72 h), the “1) Growth (%) at 72 h” value is listed as 25.41%. Also, the Mean in assay [1] (P. falciparum, 72 h, 2 μg/mL, mean of both replicates, growth (% of control)) worked out at 25.41. This molecule also showed a Pf_72h_%Growth_Rep1 in assay [1] (setting [12]) of 12.18%. The same molecule showed a Pf_72h_%Growth_Rep2 in assay [1] (setting [13]) of 38.64%. Further, the “2) Growth (%) at 120 h” value in assay [2] (P. falciparum, 2 μg/mL, 120 h) came out at 17.52%. In assay [2] (setting [14]), this molecule had a Pf_120h_%Growth_Rep1 of 13.73%. Further, in assay [2] (setting [15]), the Pf_120h_%Growth_Rep2 is recorded as 21.31%. The “3) Fold change (72 h/120 h)” value in assay [2] (P. falciparum, growth at 72 h / growth at 120 h, 2 μg/mL) is 1.5. The Tg_72h_%Growth_Rep1 in assay [3] (setting [16]) worked out at 78.55%. In assay [3] (setting [17]), this molecule returned a Tg_72h_%Growth_Rep2 of 94.84%.
